# Test results as given in PMC5218480 (PLoS ONE, 2017).
# Tested on: MV-4-11 cells
# Assay: Gene expression microarray analysis (Affymetrix PrimeView) and GSEA
# Assay type: cell-based, human
# Set-up: RFU PODN (11730768_x_at) / Fold change /veh PODN (11730768_x_at) / RFU LINC00158 (11744669_a_at) / Fold change /veh LINC00158 (11744669_a_at) / RFU DUSP10 (11751237_a_at) / Fold change /veh DUSP10 (11751237_a_at) / RFU ID3 (11757404_x_at) / Fold change /veh ID3 (11757404_x_at) / RFU PLEKHG5 (11737974_s_at) / Fold change /veh PLEKHG5 (11737974_s_at) / RFU LRRC4B (11730491_at) / Fold change /veh LRRC4B (11730491_at) / RFU GIMAP4 (11747438_a_at) / Fold change /veh GIMAP4 (11747438_a_at) / RFU KRT8 (11758183_x_at) / Fold change /veh KRT8 (11758183_x_at) / RFU CNN1 (11734310_a_at) / Fold change /veh CNN1 (11734310_a_at) / RFU VPS37D (11726825_at) / Fold change /veh VPS37D (11726825_at) / RFU C10orf10 (11716522_x_at) / Fold change /veh C10orf10 (11716522_x_at) / RFU KIR2DL2 /// KIR2DL4 /// KIR2DL5A /// KIR2DL5B /// KIR2DS1 /// KIR2DS2 /// KIR2DS3 /// KIR2DS4 /// KIR3DL3 /// KIR3DL3 /// KIR3DS1 (11738374_at) / Fold change /veh KIR2DL2 /// KIR2DL4 /// KIR2DL5A /// KIR2DL5B /// KIR2DS1 /// KIR2DS2 /// KIR2DS3 /// KIR2DS4 /// KIR3DL3 /// KIR3DL3 /// KIR3DS1 (11738374_at) / RFU C1QL1 (11718748_at) / Fold change /veh C1QL1 (11718748_at) / RFU TMPRSS4 (11747572_a_at) / Fold change /veh TMPRSS4 (11747572_a_at) / RFU HAMP (11756126_x_at) / Fold change /veh HAMP (11756126_x_at) / RFU RNFT2 (11725882_a_at) / Fold change /veh RNFT2 (11725882_a_at) / RFU NR4A2 (11747474_a_at) / Fold change /veh NR4A2 (11747474_a_at) / RFU ABCC12 (11746883_a_at) / Fold change /veh ABCC12 (11746883_a_at) / RFU TMEM136 (11760407_x_at) / Fold change /veh TMEM136 (11760407_x_at) / RFU CLDN22 /// WWC2 (11732394_at) / Fold change /veh CLDN22 /// WWC2 (11732394_at) / RFU HLA-DPB1 (11760878_x_at) / Fold change /veh HLA-DPB1 (11760878_x_at) / RFU SPINT1 (11716480_a_at) / Fold change /veh SPINT1 (11716480_a_at) / RFU GAP43 (11754022_s_at) / Fold change /veh GAP43 (11754022_s_at) / RFU A4GNT (11735810_at) / Fold change /veh A4GNT (11735810_at) / RFU PRB3 (11715151_x_at) / Fold change /veh PRB3 (11715151_x_at) / RFU TUBB4B (11761932_at) / Fold change /veh TUBB4B (11761932_at) / RFU CAPN14 (11732068_a_at) / Fold change /veh CAPN14 (11732068_a_at) / RFU TMCC2 (11721928_a_at) / Fold change /veh TMCC2 (11721928_a_at) / RFU IRGQ (11745062_a_at) / Fold change /veh IRGQ (11745062_a_at) / RFU FAM174B (11720279_a_at) / Fold change /veh FAM174B (11720279_a_at) / RFU TMPRSS4 (11748680_a_at) / Fold change /veh TMPRSS4 (11748680_a_at) / RFU FAM212B (11763350_a_at) / Fold change /veh FAM212B (11763350_a_at) / RFU PLEKHG5 (11743358_a_at) / Fold change /veh PLEKHG5 (11743358_a_at) / RFU ZSCAN30 (11745921_a_at) / Fold change /veh ZSCAN30 (11745921_a_at) / RFU CMKLR1 (11741424_a_at) / Fold change /veh CMKLR1 (11741424_a_at) / RFU LOC101060620 /// MAPK8IP1 (11723275_at) / Fold change /veh LOC101060620 /// MAPK8IP1 (11723275_at) / RFU SPTSSB (11747773_x_at) / Fold change /veh SPTSSB (11747773_x_at) / RFU PRSS12 (11739890_at) / Fold change /veh PRSS12 (11739890_at) / RFU BIN1 (11741810_x_at) / Fold change /veh BIN1 (11741810_x_at) / RFU WNT11 (11732464_a_at) / Fold change /veh WNT11 (11732464_a_at) / RFU C10orf10 (11716521_a_at) / Fold change /veh C10orf10 (11716521_a_at) / RFU C5orf56 (11738089_at) / Fold change /veh C5orf56 (11738089_at) / RFU CYB561 (11721691_x_at) / Fold change /veh CYB561 (11721691_x_at) / RFU ANKRD19P (11752326_a_at) / Fold change /veh ANKRD19P (11752326_a_at) / RFU OR2T12 /// OR2T33 /// OR2T8 (11738714_s_at) / Fold change /veh OR2T12 /// OR2T33 /// OR2T8 (11738714_s_at) / RFU VCAN (11748164_a_at) / Fold change /veh VCAN (11748164_a_at) / RFU JSRP1 (11732532_at) / Fold change /veh JSRP1 (11732532_at) / RFU KRTAP10-11 (11738290_x_at) / Fold change /veh KRTAP10-11 (11738290_x_at) / RFU MYO3A (11730013_a_at) / Fold change /veh MYO3A (11730013_a_at) / RFU EBF3 (11725865_a_at) / Fold change /veh EBF3 (11725865_a_at) / RFU CAMK2N1 (11719241_x_at) / Fold change /veh CAMK2N1 (11719241_x_at) / RFU C5orf56 (11738088_a_at) / Fold change /veh C5orf56 (11738088_a_at) / RFU OLFML3 (11715873_a_at) / Fold change /veh OLFML3 (11715873_a_at) / RFU LOC100653217 /// NTM (11731650_a_at) / Fold change /veh LOC100653217 /// NTM (11731650_a_at) / RFU MAPK11 (11762145_a_at) / Fold change /veh MAPK11 (11762145_a_at) / RFU FIZ1 (11724087_x_at) / Fold change /veh FIZ1 (11724087_x_at) / RFU OASL (11726364_x_at) / Fold change /veh OASL (11726364_x_at) / RFU SOX15 (11748057_x_at) / Fold change /veh SOX15 (11748057_x_at) / RFU CD79A (11719716_a_at) / Fold change /veh CD79A (11719716_a_at) / RFU HIST1H1D (11736915_at) / Fold change /veh HIST1H1D (11736915_at) / RFU CASKIN2 (11723855_a_at) / Fold change /veh CASKIN2 (11723855_a_at) / RFU LOC730098 (11760151_x_at) / Fold change /veh LOC730098 (11760151_x_at) / RFU OR4N2 (11742367_at) / Fold change /veh OR4N2 (11742367_at) / RFU PRRT2 (11749266_a_at) / Fold change /veh PRRT2 (11749266_a_at) / RFU SNX32 (11753110_a_at) / Fold change /veh SNX32 (11753110_a_at) / RFU CDHR5 (11726645_a_at) / Fold change /veh CDHR5 (11726645_a_at) / RFU RCAN1 (11760418_a_at) / Fold change /veh RCAN1 (11760418_a_at) / RFU FAM167A (11723789_a_at) / Fold change /veh FAM167A (11723789_a_at) / RFU FAM26E (11764081_at) / Fold change /veh FAM26E (11764081_at) / RFU ISYNA1 (11749810_s_at) / Fold change /veh ISYNA1 (11749810_s_at) / RFU ACY1 (11761880_at) / Fold change /veh ACY1 (11761880_at) / RFU 11764098_at / Fold change /veh 11764098_at / RFU SAMD14 (11745864_x_at) / Fold change /veh SAMD14 (11745864_x_at) / RFU NPB (11741838_a_at) / Fold change /veh NPB (11741838_a_at) / RFU TMPRSS6 (11731388_a_at) / Fold change /veh TMPRSS6 (11731388_a_at) / RFU KRTAP10-2 (11738614_at) / Fold change /veh KRTAP10-2 (11738614_at) / RFU ARHGAP8 /// PRR5-ARHGAP8 (11727945_x_at) / Fold change /veh ARHGAP8 /// PRR5-ARHGAP8 (11727945_x_at) / RFU KRTAP5-7 /// NADSYN1 (11734609_at) / Fold change /veh KRTAP5-7 /// NADSYN1 (11734609_at) / RFU RASL12 (11751679_a_at) / Fold change /veh RASL12 (11751679_a_at) / RFU CDKN2B (11736163_a_at) / Fold change /veh CDKN2B (11736163_a_at) / RFU PRF1 (11729649_at) / Fold change /veh PRF1 (11729649_at) / RFU, ZNF638 /// ZNF638-IT1 / Fold change vs veh, ZNF638 /// ZNF638-IT1 / RFU, PANK3 / Fold change vs veh, PANK3 / RFU, SH3YL1 / Fold change vs veh, SH3YL1 / RFU, ZEB2 / Fold change vs veh, ZEB2 / RFU, NRIP1 / Fold change vs veh, NRIP1 / RFU, PTTG1IP / Fold change vs veh, PTTG1IP / RFU, CAPN2 / Fold change vs veh, CAPN2 / RFU, MED14 / Fold change vs veh, MED14 / RFU, SNORA58 / Fold change vs veh, SNORA58 / RFU, C1orf63 / Fold change vs veh, C1orf63 / RFU, LRRFIP1 / Fold change vs veh, LRRFIP1 / RFU, NDUFAF7 / Fold change vs veh, NDUFAF7 / RFU, SLC12A2 / Fold change vs veh, SLC12A2 / RFU, IBTK / Fold change vs veh, IBTK / RFU, ESF1 / Fold change vs veh, ESF1 / Fold change vs veh, TMEM50B / RFU, TAOK1 / Fold change vs veh, TAOK1 / RFU, ACBD3 / Fold change vs veh, ACBD3 / RFU, TMA16 / Fold change vs veh, TMA16 / RFU, RWDD3 / Fold change vs veh, RWDD3 / RFU, BCAT1 / Fold change vs veh, BCAT1 / RFU, EDEM3 / Fold change vs veh, EDEM3 / RFU, TMEM33 / Fold change vs veh, TMEM33 / RFU, WDR75 / Fold change vs veh, WDR75 / RFU, AHCTF1 / Fold change vs veh, AHCTF1 / RFU, TFRC / Fold change vs veh, TFRC / RFU, ZDHHC17 / Fold change vs veh, ZDHHC17 / RFU, NOM1 / Fold change vs veh, NOM1 / RFU, ARL8B / Fold change vs veh, ARL8B / RFU, ZBTB11 / Fold change vs veh, ZBTB11 / RFU, TAMM41 / Fold change vs veh, TAMM41 / RFU, KIAA1704 /// LOC100996395 / Fold change vs veh, KIAA1704 /// LOC100996395 / RFU, ING1 / Fold change vs veh, ING1 / RFU, TRMT61B / Fold change vs veh, TRMT61B / RFU, FUBP3 / Fold change vs veh, FUBP3 / RFU, TP53 / Fold change vs veh, TP53 / RFU, TNKS2 / Fold change vs veh, TNKS2 / RFU, ZFP14 / Fold change vs veh, ZFP14 / RFU, ACTR2 / Fold change vs veh, ACTR2 / RFU, PPP3R1 / Fold change vs veh, PPP3R1 / RFU, PIK3R1 / Fold change vs veh, PIK3R1 / RFU, HNRNPA1 / Fold change vs veh, HNRNPA1 / RFU, RNF170 / Fold change vs veh, RNF170 / RFU, ZNF28 / Fold change vs veh, ZNF28 / RFU, RNGTT / Fold change vs veh, RNGTT / RFU, OGT / Fold change vs veh, OGT / RFU, BRD1 / Fold change vs veh, BRD1 / RFU, MARS / Fold change vs veh, MARS / RFU, ZNF655 / Fold change vs veh, ZNF655 / RFU, FAHD1 / Fold change vs veh, FAHD1 / RFU, BDP1 / Fold change vs veh, BDP1 / RFU, LRRCC1 / Fold change vs veh, LRRCC1 / RFU, ARID1A / Fold change vs veh, ARID1A / RFU, ZNF146 / Fold change vs veh, ZNF146 / RFU, ZNF330 / Fold change vs veh, ZNF330 / RFU, GPN3 / Fold change vs veh, GPN3 / RFU, C9orf123 / Fold change vs veh, C9orf123 / RFU, N4BP2L2 / Fold change vs veh, N4BP2L2 / RFU, ARFIP1 / Fold change vs veh, ARFIP1 / RFU, FAM179B / Fold change vs veh, FAM179B / RFU, BCL10 / Fold change vs veh, BCL10 / RFU, UHRF1BP1L / Fold change vs veh, UHRF1BP1L / RFU, BET1 / Fold change vs veh, BET1 / RFU, CNOT2 / Fold change vs veh, CNOT2 / RFU, ZNF268 / Fold change vs veh, ZNF268 / Fold change vs veh, ZNF507 / RFU, DGCR2 / Fold change vs veh, DGCR2 / RFU, WDSUB1 / Fold change vs veh, WDSUB1 / Fold change vs veh, HSP90B1 /// MIR3652 / RFU, ADSS / Fold change vs veh, ADSS / RFU, GK / Fold change vs veh, GK / RFU, ZNF148 / Fold change vs veh, ZNF148 / RFU, TAF9 / Fold change vs veh, TAF9 / RFU, SLC1A5 / Fold change vs veh, SLC1A5 / RFU, SLMO2 / Fold change vs veh, SLMO2 / RFU, ABCC4 / Fold change vs veh, ABCC4 / RFU, LOC101060439 /// RAP1B / Fold change vs veh, LOC101060439 /// RAP1B / RFU, RFX7 / Fold change vs veh, RFX7 / RFU, GTPBP10 / Fold change vs veh, GTPBP10 / RFU, CNEP1R1 / Fold change vs veh, CNEP1R1 / RFU, BIVM-ERCC5 /// ERCC5 / Fold change vs veh, BIVM-ERCC5 /// ERCC5 / RFU, ILF3 / Fold change vs veh, ILF3 / RFU 11762660_at / Fold change /veh 11762660_at / RFU VCAN (11757783_s_at) / Fold change /veh VCAN (11757783_s_at) / RFU DDX43 (11728927_at) / Fold change /veh DDX43 (11728927_at) / RFU KRT8 (11758188_x_at) / Fold change /veh KRT8 (11758188_x_at) / RFU NKD1 (11759106_at) / Fold change /veh NKD1 (11759106_at) / RFU SRD5A1 (11742802_a_at) / Fold change /veh SRD5A1 (11742802_a_at) / RFU TPSAB1 /// TPSB2 (11721975_s_at) / Fold change /veh TPSAB1 /// TPSB2 (11721975_s_at) / RFU GSTM3 (11746129_a_at) / Fold change /veh GSTM3 (11746129_a_at) / RFU IL23R (11737362_x_at) / Fold change /veh IL23R (11737362_x_at) / RFU TMEM51 (11727254_a_at) / Fold change /veh TMEM51 (11727254_a_at) / RFU PIWIL2 (11732686_x_at) / Fold change /veh PIWIL2 (11732686_x_at) / RFU ORM1 (11744905_x_at) / Fold change /veh ORM1 (11744905_x_at) / RFU CCDC152 (11743942_at) / Fold change /veh CCDC152 (11743942_at) / RFU ECM1 (11717891_a_at) / Fold change /veh ECM1 (11717891_a_at) / RFU IL23R (11748794_a_at) / Fold change /veh IL23R (11748794_a_at) / RFU TNFAIP8L3 (11732012_x_at) / Fold change /veh TNFAIP8L3 (11732012_x_at) / RFU MBOAT4 (11741988_at) / Fold change /veh MBOAT4 (11741988_at) / RFU 11764193_at / Fold change /veh 11764193_at / RFU TMEM53 (11763286_at) / Fold change /veh TMEM53 (11763286_at) / RFU MAGEB2 (11727129_at) / Fold change /veh MAGEB2 (11727129_at) / RFU TMEM200A (11744735_a_at) / Fold change /veh TMEM200A (11744735_a_at) / RFU CCDC152 (11751479_a_at) / Fold change /veh CCDC152 (11751479_a_at) / RFU FAM211A (11726209_a_at) / Fold change /veh FAM211A (11726209_a_at) / RFU RGS16 (11746705_a_at) / Fold change /veh RGS16 (11746705_a_at) / RFU VCAN (11755009_s_at) / Fold change /veh VCAN (11755009_s_at) / RFU RHOB (11743442_s_at) / Fold change /veh RHOB (11743442_s_at) / RFU RGS16 (11720943_a_at) / Fold change /veh RGS16 (11720943_a_at) / RFU RGS16 (11720944_at) / Fold change /veh RGS16 (11720944_at) / RFU, VPS4B / Fold change vs veh, VPS4B / RFU, CREB1 / Fold change vs veh, CREB1 / RFU, DNAJC13 / Fold change vs veh, DNAJC13 / RFU, GNAQ / Fold change vs veh, GNAQ / RFU, CDK5R1 / Fold change vs veh, CDK5R1 / RFU, ZRANB3 / Fold change vs veh, ZRANB3 / RFU, CUL4A / Fold change vs veh, CUL4A / RFU, CCNY / Fold change vs veh, CCNY / RFU, UFL1 / Fold change vs veh, UFL1 / RFU, COG3 / Fold change vs veh, COG3 / RFU, DIAPH2 / Fold change vs veh, DIAPH2 / RFU, SKA2 / Fold change vs veh, SKA2 / RFU, AFF3 / Fold change vs veh, AFF3 / RFU, LMF1 / Fold change vs veh, LMF1 / RFU, IPO11 / Fold change vs veh, IPO11 / RFU, DFFB / Fold change vs veh, DFFB / RFU, FOXP1 / Fold change vs veh, FOXP1 / RFU, CARD8 / Fold change vs veh, CARD8 / RFU, STRN3 / Fold change vs veh, STRN3 / RFU, ADK / Fold change vs veh, ADK / RFU, RASSF2 / Fold change vs veh, RASSF2 / RFU, WIPF1 / Fold change vs veh, WIPF1 / RFU, LARP1B / Fold change vs veh, LARP1B / RFU, RASA1 / Fold change vs veh, RASA1 / RFU, RB1 / Fold change vs veh, RB1 / RFU, PPFIA1 / Fold change vs veh, PPFIA1 / RFU, MAT2A / Fold change vs veh, MAT2A / RFU, CCT5 / Fold change vs veh, CCT5 / RFU, WDR92 / Fold change vs veh, WDR92 / RFU, CUX1 / Fold change vs veh, CUX1 / RFU, TTC7A / Fold change vs veh, TTC7A / RFU, TMEM135 / Fold change vs veh, TMEM135 / RFU, DEPTOR / Fold change vs veh, DEPTOR / RFU, CPM / Fold change vs veh, CPM / RFU, DNAJB6 / Fold change vs veh, DNAJB6 / RFU, CACNA2D3 / Fold change vs veh, CACNA2D3 / RFU, DTX4 / Fold change vs veh, DTX4 / RFU, TFCP2 / Fold change vs veh, TFCP2 / RFU, GMCL1 /// GMCL1P1 / Fold change vs veh, GMCL1 /// GMCL1P1 / RFU, AEBP2 / Fold change vs veh, AEBP2 / RFU, SNHG1 /// SNORD22 /// SNORD25 /// SNORD26 /// SNORD27 /// SNORD28 /// SNORD29 /// SNORD31 / Fold change vs veh, SNHG1 /// SNORD22 /// SNORD25 /// SNORD26 /// SNORD27 /// SNORD28 /// SNORD29 /// SNORD31 / Fold change (Aza/veh), C12orf56 (ProbeSet 11735607_a_at) / Fold change (ACY-1035/veh), C12orf56 (ProbeSet 11735607_a_at) / Fold change (Aza/veh), FGFR1OP (ProbeSet 11751329_s_at) / Fold change (ACY-1035/veh), FGFR1OP (ProbeSet 11751329_s_at) / Fold change (Aza/veh), VPS36 (ProbeSet 11739960_a_at) / Fold change (ACY-1035/veh), VPS36 (ProbeSet 11739960_a_at) / RFU SYPL1 (11715823_x_at) / Fold change /veh SYPL1 (11715823_x_at) / RFU IGFBP7 (11715501_s_at) / Fold change /veh IGFBP7 (11715501_s_at) / RFU REEP3 (11722064_at) / Fold change /veh REEP3 (11722064_at) / RFU IGLL1 (11728026_x_at) / Fold change /veh IGLL1 (11728026_x_at): dose or concentration left out as unconfirmed
# Settings: MV-4-11 cells, 48 hours
smiles,measurement,value
Nc1ncn([C@@H]2O[C@H](CO)[C@@H](O)[C@H]2O)c(=O)n1 [azacitidine],Fold change /veh HLA-DPB1 (11760878_x_at),0.86
